According to US6350731B1, “Platelet-derived growth factor analogues” (Trigen Limited, priority 1993, dated 2002):
One block for each substance: values may come before it. Where no end group is shown, it is not given here. SMCC = N-(4-carboxy-cyclohexyl-methyl)-maleimide cross-linker

Columns and labels:
PDGF β-receptors = PDGF β-receptors (Homo sapiens, UniProt P09619); conditions: reference [6]; cited from earlier work
PDGF receptor = conditions: cited from earlier work
Swiss 3T3.A31 = experiment: [3H]-thymidine uptake assay on fibroblast cells in culture; assay type: cell-based, murine; conditions: for stimulatory (mitogenic) effect, thymidine uptake: FIG. 1
Description: 2) Effect of PDGF Peptides on Fibroblast Cells in Culture The stimulatory or inhibitory effect of the peptides on the murine fibroblast cell line Swiss 3T3.A31 were investigated using the [^3H]-thymidine uptake assay as described by Raines & Ross. The peptides were tested for their ability to stimulate thymidine uptake in the cells in culture.

3T3 cells = experiment: 125I-PDGF-BB binding inhibition assay, 3T3 cells; design: species or system murine; conditions: at the concentrations tested, FIG. 2A
Description: (§1) 3) Effect of PDGF Peptides on ^125I-PDGF-BB Binding to 3T3 Cells and Human Smooth Muscle Cells p PDGF-BB binding inhibition assay was performed as described by Engstrom et al. A murine fibroblast cell line 3T3.A31 and human aortic smooth muscle cells were used.

[1] = test system: corresponding immunising peptide; experiment: ELISA titre of polyclonal antisera; assay type: binding; conditions: rabbits immunised with peptide linked to thyroglobulin, FIGS. 3A, 3B
Description: (§2) Rabbits and mice were immunised with the peptides either in the free form mixed with Freund's adjuvant or conjugated to a carrier protein (Thyroglobulin or keyhole haemocyanin). Antisera were tested for antibody production to the peptides and PDGF using ELISA, dot blot assays and SDS-PAGE followed by Western blotting.

PDGF = molecular target: T1, PDGF (Homo sapiens, UniProt P01127); experiment: Western blot vs native PDGF; assay type: binding; conditions: polyclonal antisera
T1 construct: both chains undergo proteolytic cleavage at the N-termini during maturation; The B chain is also processed at the C-terminal end
T1 sequence (P01127 82-190 limits assumed): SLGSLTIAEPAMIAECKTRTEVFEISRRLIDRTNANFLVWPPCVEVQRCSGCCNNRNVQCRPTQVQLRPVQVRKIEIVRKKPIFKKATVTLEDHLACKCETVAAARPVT
Description: as §2

[2] = test system: human smooth muscle cells; experiment: 125I-PDGF-BB binding inhibition assay, human smooth muscle cells (peptides); conditions: FIG. 2B
Description: as §1

[3] = test system: smooth muscle cells of injured arteries; conditions: administration of PDGF, rat, reference [19]; cited from earlier work
large bed sores = conditions: locally applied, reference [31]; cited from earlier work

PDGF β-receptors, sequence (P09619 33-1106): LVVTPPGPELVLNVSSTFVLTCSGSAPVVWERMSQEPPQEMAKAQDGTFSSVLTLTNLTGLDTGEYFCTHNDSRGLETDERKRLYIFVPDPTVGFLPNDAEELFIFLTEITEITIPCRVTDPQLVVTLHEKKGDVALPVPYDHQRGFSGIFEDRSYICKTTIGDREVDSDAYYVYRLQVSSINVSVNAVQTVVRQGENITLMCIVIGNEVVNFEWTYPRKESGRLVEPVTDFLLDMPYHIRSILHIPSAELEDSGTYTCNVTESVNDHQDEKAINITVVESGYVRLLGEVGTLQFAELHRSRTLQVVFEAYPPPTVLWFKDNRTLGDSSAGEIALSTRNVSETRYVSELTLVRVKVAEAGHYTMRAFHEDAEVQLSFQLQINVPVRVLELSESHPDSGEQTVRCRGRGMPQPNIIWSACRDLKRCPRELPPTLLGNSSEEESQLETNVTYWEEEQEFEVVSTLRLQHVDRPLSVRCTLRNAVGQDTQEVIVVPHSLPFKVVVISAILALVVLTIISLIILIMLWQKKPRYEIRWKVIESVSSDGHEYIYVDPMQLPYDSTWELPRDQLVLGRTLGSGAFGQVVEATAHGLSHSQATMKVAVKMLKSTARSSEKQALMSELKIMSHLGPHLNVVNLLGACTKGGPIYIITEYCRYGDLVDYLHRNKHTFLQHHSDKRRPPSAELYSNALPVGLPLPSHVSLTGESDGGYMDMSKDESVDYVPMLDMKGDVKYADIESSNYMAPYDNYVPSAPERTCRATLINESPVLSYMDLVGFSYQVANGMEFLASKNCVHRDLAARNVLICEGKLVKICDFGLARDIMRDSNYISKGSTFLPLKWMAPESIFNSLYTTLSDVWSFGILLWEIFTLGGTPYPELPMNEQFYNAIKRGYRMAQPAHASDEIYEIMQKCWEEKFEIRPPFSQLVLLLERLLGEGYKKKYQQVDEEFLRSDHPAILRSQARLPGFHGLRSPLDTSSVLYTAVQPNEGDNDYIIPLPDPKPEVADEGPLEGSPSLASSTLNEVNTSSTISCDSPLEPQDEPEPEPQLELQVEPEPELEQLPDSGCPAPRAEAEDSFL

Substance: ANFLVW—EIVRKKP [literature peptide corresponding to PDGF-B chain residues 35-40 and 78-83]
antagonist for PDGF (PDGF β-receptors): effective as an antagonist for PDGF

Substance: polylysin
inhibition of PDGF binding to its receptor (PDGF receptor): inhibit PDGF binding to its receptor

antibodies produced by the peptide reacted with native PDGF (Western immunoblot) (PDGF): reacted with the native PDGF
Substance: Ac-^25I-S-R-R-L-I-D-R-T-N-A-N-F-L^38-C (Ac-ISRRLIDRTNANFLC) [GP4]
stimulatory (mitogenic) effect, thymidine uptake (Swiss 3T3.A31): highest stimulatory effect | mitogenic effect upon reduction and alkylation of the C-terminal end cysteine residue (Swiss 3T3.A31; reduced and alkylated peptide): almost completely abolished | inhibition of binding of radiolabelled PDGF-BB to 3T3 cells (3T3 cells): modest inhibition | antibodies to the corresponding immunising peptide by ELISA [1]: high titre antibodies

Substance: Ac-^25I-S-R-R-L-I-D-R-T-N-A-N-F-L^38 (Ac-ISRRLIDRTNANFL) [GP2]
stimulatory (mitogenic) effect, thymidine uptake (Swiss 3T3.A31): low stimulatory effect

Substance: Ac-^25I-S-R-R-L-I-D-R-T-N-A-N-F-L^38-(G-G-G-G-G-G)-^73R-K-I-E-I-V-R-K-K^81-C [GP14]
inhibition of labelled PDGF binding to human smooth muscle cells [2]: potent inhibitors

Substance: Ac-^25I-S-R-R-L-I-D-R-T-N-A-N-F-L-V-W-P-P-C^43-(SMCC)-^73R-K-I-E-I-V-R-K-K^81-C (Ac-ISRRLIDRTNANFLVWPPC(SMCC)RKIEIVRKKC; also: SMCC joins Cys43 (pos 19) to Arg73 (pos 20) in place of a peptide bond) [GP20]
inhibition of labelled PDGF binding to human smooth muscle cells [2]: potent inhibitors

antibodies produced by the peptide reacted with native PDGF (Western immunoblot) (PDGF): reacted with the native PDGF
Substance: ^73R-K-I-E-I-V-R-K-K-P-I-F-K-K-A-T-V^89 (RKIEIVRKKPIFKKATV) [GP21a]

Substance: protamine sulphate
inhibition of PDGF binding to its receptor (PDGF receptor): inhibit PDGF binding to its receptor

Substance: PDGF: 28-31 KD dimeric, highly basic glycoprotein, mitogen for connective tissue cells
SMC migration from the media to the intima [3]: 20 fold | SMC proliferation in the media [3]: 2-3 fold | healing of large bed sores (large bed sores): stimulates the healing of large bed sores

Substance: AC-^73R-K-I-E-I-V-R-K-K^81-C (Ac-RKIEIVRKKC) [GP8]
stimulatory (mitogenic) effect, thymidine uptake (Swiss 3T3.A31): not as stimulatory as GP4 | inhibition of binding of radiolabelled PDGF-BB to 3T3 cells (3T3 cells): modest inhibition | antibodies to the corresponding immunising peptide by ELISA [1]: high titre antibodies
